Measured values: US7829568B2, “Substituted 5,6,7,8-tetrahydroimidazo[1,2-a]pyridin-2-ylamine compounds and their use for producing drugs” (Gruenenthal GmbH, priority 2005, dated 2010)

Target: T1, human μ-opioid receptor (Homo sapiens, UniProt P35372)
T1 construct: purchased NEN, Zaventem, Belgium RB-HOM; host or cells: CHO-K1 cells (membrane preparation)
Experiment: Affinity to the human μ-opioid receptor ([3H]-naloxone displacement, SPA)
Assay type: binding
Details: compound 1 μmol/l; 1 nmol/l [3H]-naloxone; CHO-K1 membrane preparation
Experimental: III. Method for Determining the Affinity to the Human μ-Opioid Receptor
The receptor affinity to the human μ-opioid receptor is determined in a homogeneous batch in microtitre plates. In this case, dilution series of the respective substituted 5,6,7,8-tetrahydro-imidazo[1,2-a]pyridin-2-ylamine compound of the general formula I to be tested are incubated with a receptor membrane preparation (15-40 μg of protein per 250 μl of the incubation batch) of CHO-K1 cells which express the human μ-opioid receptor (μ-opiate receptor) (RB-HOM receptor membrane preparation from NEN, Zaventem, Belgium) in the presence of 1 nmol/l of the radioactive ligands [^3H]-naloxone (NET719, NEN, Zaventem, Belgium) and also 1 mg of WGA SPA beads (wheat germ agglutinin SPA beads from Amersham Pharmacia, Freiburg, Germany) in a total volume of 250 μl at room temperature for 90 minutes. 50 mmol/l tris-HCl are used as an incubation buffer with 0.05% by weight of sodium azide and 0.06% by weight of bovine serum albumin. 25 μmol/l naloxone are also added to determine the non-specific bond. At the end of the 90 minute incubation period, the microtitre plates are centrifuged off for 20 minutes at 1000 g and the radioactivity is measured with a β-counter (Microbeta-Trilux, PerkinElmer Wallac, Freiburg, Germany. The percentage of displacement of the radioactive ligand from its bond to the human μ-opiate receptor at a concentration of 1 μmol/l of the compound to be tested is determined and indicated as a % inhibition of the specific bond.

T1 sequence (P35372 whole entry): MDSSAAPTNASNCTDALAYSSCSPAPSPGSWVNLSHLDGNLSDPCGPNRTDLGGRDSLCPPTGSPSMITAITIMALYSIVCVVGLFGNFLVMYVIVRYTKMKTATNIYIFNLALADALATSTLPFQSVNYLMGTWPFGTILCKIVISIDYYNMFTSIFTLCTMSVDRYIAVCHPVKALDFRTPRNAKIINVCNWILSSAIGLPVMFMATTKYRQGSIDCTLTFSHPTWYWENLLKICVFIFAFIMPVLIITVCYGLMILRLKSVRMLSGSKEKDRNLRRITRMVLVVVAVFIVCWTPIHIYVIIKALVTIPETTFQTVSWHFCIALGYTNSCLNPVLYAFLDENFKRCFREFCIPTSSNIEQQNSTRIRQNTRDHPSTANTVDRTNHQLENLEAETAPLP

CCCCN(C(=O)c1cccc(Cl)c1)c1nc2n(c1C(=O)NCCSCc1c(Cl)cccc1Cl)CCCC2 [Example 95, 2-[butyl-(3-chloro-benzoyl)-amino]-5,6,7,8-tetrahydro-imidazo[1,2-a]pyridine-3-carboxylic acid [2-(2,6-dichlor-benzylsulphanyl)-ethyl]-amide] was tested, and the “μ-opioid receptor (man) (% inhibition)” value was 53%.

Same assay, conditions: compound 1 μmol/l; 1 nmol/l [3H]-naloxone; CHO-K1 membrane preparation; read-out: μ-opioid receptor (man) (% inhibition)

Compared with CC(CCc1ccccc1)NC(=O)c1c(N(C)C(=O)c2cccc3ccccc23)nc2n1CCCC2 (centres unmarked) [Example 112, 2-[methyl-(naphthalene-1-carbonyl)-amino]-5,6,7,8-tetrahydro-imidazo[1,2-a]pyridine-3-carboxylic acid (1-methyl-3-phenyl-propyl)-amide], CN(C(=O)c1cccc2ccccc12)c1nc2n(c1C(=O)NCc1cc(C(F)(F)F)cc(C(F)(F)F)c1)CCCC2 [Example 15, 2-[Methyl-(naphthalene-1-carbonyl)-amino]-5,6,7,8-tetrahydro-imidazo[1,2-a]pyridine-3-carboxylic acid 3,5-bis-trifluoromethyl-benzylamide] is lower in inhibition at 1 µM: 51% for the first, 35% for the second.

Compared with Cc1cc(Cl)cc(Cl)c1CNC(=O)c1c(N(C)C(=O)c2ccccc2)nc2n1CCCC2 [Example 188, 2-(benzoyl-methyl-amino)-5,6,7,8-tetrahydro-imidazo[1,2-a]pyridine-3-carboxylic acid 2,4-dichloro-6-methyl-benzylamide], CN(C(=O)c1cccc(Cl)c1)c1nc2n(c1C(=O)N1CCN(CCc3ccccc3)CC1)CCCC2 [Example 106, 3-chloro-N-methyl-N-[3-(4-phenethyl-piperazine-1-carbonyl)-5,6,7,8-tetrahydro-imidazo[1,2-a]pyridin-2-yl]-benzamide] is lower in inhibition at 1 µM: 59% for the first, 30% for the second.

Compared with CN(C(=O)Cc1ccccc1)c1nc2n(c1C(=O)N1CCN(c3ccccc3)CC1)CCCC2 [Example 186, N-methyl-2-phenyl-N-[3-(4-phenyl-piperazine-1-carbonyl)-5,6,7,8-tetrahydro-imidazo[1,2-a]pyridin-2-yl]-acetamide], CCCCN(C(=O)c1ccc(F)c(F)c1)c1nc2n(c1C(=O)NCCC(c1ccccc1)c1ccccc1)CCCC2 [Example 180, 2-[butyl-(3,4-difluoro-benzoyl)-amino]-5,6,7,8-tetrahydro-imidazo[1,2-a]pyridine-3-carboxylic acid (3,3-diphenyl-propyl)-amide] is lower in inhibition at 1 µM: 48% for the first, 47% for the second.

CCCCN(C(=O)c1cccc(Cl)c1)c1nc2n(c1C(=O)Nc1ccc3c(c1)OCCO3)CCCC2 [Example 181, 2-[butyl-(3-chloro-benzoyl)-amino]-5,6,7,8-tetrahydro-imidazo[1,2-a]pyridine-3-carboxylic acid (2,3-dihydro-benzo[1,4]dioxin-6-yl)-amide] was tested, and the inhibition at 1 µM was 58%.
